In patent publication US8748700B2, “Control of AAD-1 monocot volunteers in fields of dicot crops” (Dow AgroSciences, LLC., priority 2009, dated 2014):

How the values were obtained:
[1] = tested on: Transgenic Hi-II maize plants containing the AAD-1 and PAT expression cassette (3404); assay: Post-emergent herbicide application on transgenic maize containing AAD-1 and PAT (pDAB3404), visual injury assessment; format: in vivo; conditions: for Tolerance (−/+) 3404: 3404 = molecular stack of AAD-1 and PAT crossed with CP4 for glyphosate tolerance, V1-V3 stage, 1x Field Rate, visual injury after 14 days; for Comment (activity in words): applies to both WT and AAD-1 plants; for injury: WT and 3404 not distinguished
Protocol: Seed were planted into Metro Mix Media (Sun Gro Horticulture Inc., Bellevue, Wash.) and subirrigated with Hoagland's solution until wet, then allowed to gravity drain. Pots were placed in a glasshouse environment set to 27° C. until the germinated plants reached the V1-V3 growth stage. At or about, the V1-V3 growth stage, the maize plants were spayed using a track sprayer and a drop down nozzle calibrated to deliver a187 L/ha solution of herbicide at the 1× Field Rate (Table 7). After treatment the plants were placed in the greenhouse and scored via visual injury assessment after 14 days.

[2] = tested on: volunteer conventional or transgenic maize lines; assay: Control of volunteer maize in a field planted with AAD-maize using alternative herbicides (Table 6, herbicide options); format: in vivo; conditions: for Herbicides option - Burndown/PRE: planted: any AAD-1 hybrid of the table
Source text: In an embodiment, volunteer transgenic maize lines (containing the Clear Field trait, Roundup Ready or other Glyphosate Tolerant Trait, Liberty Link Trait, Imidazolonine tolerant trait, or any stacked combination thereof) or volunteer conventional maize lines are controlled within a field of transgenic AAD maize (AAD-1) by the application of aryloxyphenoxypropionate herbicide (Fops) including, but not limited to; quizalofop, haloxyfop, fenoxaprop, fluazifop, et al., their stereospecific isomers or racemic mixtures, and esters, acid, or salts thereof. In addition, the Fops herbicide may be applied with another herbicide(s) to control the volunteer maize lines described above.
The application of a given herbicide can be made before planting at pre-emergence/burndown or post-emergence after planting to control the volunteer conventional or transgenic maize lines. Table 6 lists the herbicides to be used at the different stages of planting (pre-emergence or post-emergence) to control volunteer conventional or transgenic maize. At or about a 1× Field Rate concentration of herbicide would be applied, as either a tank mix or alone, to the field for both pre-emergent and post-emergent volunteer control.
The control of conventional maize plants or transgenic maize plants containing a herbicide tolerant expression cassette within a field of AAD transgenic maize (either stacked with other herbicide tolerant traits or alone) would be applicable for the control of a herbicide tolerant transgenic monocot plant (including, but not limited too; corn, rice, sugar cane, switch grass, turf grass species, sorghum, barley, wheat, and oats, and durum) within a field being planted with an AAD monocot crop (including, but not limited too; corn, rice, sugar cane, switch grass, turf grass species, sorghum, barley, wheat, and oats, and durum). The example described above, in which volunteer transgenic herbicide tolerant maize plants are controlled in a field planted with AAD transgenic maize, is illustrative of the invention and not intended to restrict the scope of this embodiment.

[3] = volunteer: CL Corn, planted: AAD-1 + PAT + AHAS
[4] = volunteer: CL Corn, planted: AAD-1 + PAT + GAT + ALS
[5] = volunteer: CL Corn, planted: AAD-1 + PAT + GT
[6] = volunteer: Conventional corn, planted: AAD-1 + PAT + AHAS
[7] = volunteer: Conventional corn, planted: AAD-1 + PAT + GAT + ALS
[8] = volunteer: Conventional corn, planted: AAD-1 + PAT + GT
[9] = volunteer: RR or GT Corn (text printed beside the CL Corn lines r30-r36)

CC(C)N.O=C(O)CNCP(=O)(O)O [glyphosate-isopropylammonium]
Tolerance (−/+) 3404 [1]: +

C[C@@H](Oc1ccc(Oc2ncc(Cl)cc2F)cc1)C(=O)O [clodinafop]
Tolerance (−/+) 3404 [1]: +

COCc1cnc(C2=NC(C)(C(C)C)C(=O)N2)c(C(=O)O)c1 (stereo not shown) [imazamox]
Tolerance (−/+) 3404 [1]: −

CCCCOC(=O)[C@@H](C)Oc1ccc(Oc2ccc(C#N)cc2F)cc1 [cyhalofop-butyl]
Tolerance (−/+) 3404 [1]: +

COC(=O)[C@@H](C)Oc1ccc(Oc2ncc(C(F)(F)F)cc2Cl)cc1 [haloxyfop-methyl R]
Tolerance (−/+) 3404 [1]: +

CP(=O)(O)CCC(N)C(=O)O (stereo not shown) [glufosinate]
Herbicides option - POST ([2]; volunteer: CL (or AHAS) + GT, planted: AAD-1 + PAT): glufosinate
Herbicides option - POST ([2]; volunteer: CL (or AHAS) + GT, planted: AAD-1 + PAT + AHAS): glufosinate
Herbicides option - POST ([2]; volunteer: CL (or AHAS) + GT, planted: AAD-1 + PAT + GAT + ALS): glufosinate
Herbicides option - POST ([2]; volunteer: CL (or AHAS) + GT, planted: AAD-1 + PAT + GT): glufosinate
Herbicides option - Burndown/PRE ([2]; volunteer: CL (or AHAS) + GT): glufosinate
Herbicides option - Burndown/PRE ([2]; volunteer: CL (or AHAS) + PAT): glufosinate
Herbicides option - POST ([2]; volunteer: CL Corn, planted: AAD-1 + PAT): glufosinate
Herbicides option - POST [2, 3]: glufosinate
Herbicides option - POST [2, 4]: glufosinate
Herbicides option - POST [2, 5]: glufosinate
Herbicides option - Burndown/PRE ([2]; volunteer: CL Corn): glufosinate
Herbicides option - POST ([2]; volunteer: Conventional corn, planted: AAD-1 + PAT): glufosinate
Herbicides option - POST [2, 6]: glufosinate
Herbicides option - POST [2, 7]: glufosinate
Herbicides option - POST [2, 8]: glufosinate
Herbicides option - Burndown/PRE ([2]; volunteer: Conventional corn): glufosinate
Herbicides option - POST ([2]; volunteer: GAT + ALS, planted: AAD-1 + PAT): glufosinate
Herbicides option - POST ([2]; volunteer: GAT + ALS, planted: AAD-1 + PAT + AHAS): glufosinate
Herbicides option - POST ([2]; volunteer: GAT + ALS, planted: AAD-1 + PAT + GAT + ALS): glufosinate
Herbicides option - POST ([2]; volunteer: GAT + ALS, planted: AAD-1 + PAT + GT): glufosinate
Herbicides option - Burndown/PRE ([2]; volunteer: GAT + ALS): glufosinate
Herbicides option - Burndown/PRE [2, 9]: glufosinate
Herbicides option - POST ([2]; volunteer: RR or GT Corn, planted: AAD-1 + PAT): glufosinate
Herbicides option - POST ([2]; volunteer: RR or GT Corn, planted: AAD-1 + PAT + AHAS): glufosinate
Herbicides option - POST ([2]; volunteer: RR or GT Corn, planted: AAD-1 + PAT + GAT + ALS): glufosinate
Herbicides option - POST ([2]; volunteer: RR or GT Corn, planted: AAD-1 + PAT + GT): glufosinate

CCC/C(=N\OCC)C1=C(O)CC(CC(C)SCC)CC1=O (stereo not shown) [sethoxydim]
Tolerance (−/+) 3404 [1]: −

CCOC(=O)[C@@H](C)Oc1ccc(Oc2nc3ccc(Cl)cc3o2)cc1 [fenoxaprop-P-ethyl]
Tolerance (−/+) 3404 [1]: +

C[n+]1ccc(-c2cc[n+](C)cc2)cc1 [paraquat]
Herbicides option - Burndown/PRE ([2]; volunteer: CL (or AHAS) + GT): paraquat
Herbicides option - Burndown/PRE ([2]; volunteer: CL (or AHAS) + PAT): paraquat
Herbicides option - Burndown/PRE ([2]; volunteer: CL Corn): paraquat
Herbicides option - Burndown/PRE ([2]; volunteer: Conventional corn): paraquat
Herbicides option - Burndown/PRE ([2]; volunteer: GAT + ALS + PAT): paraquat
Herbicides option - Burndown/PRE ([2]; volunteer: GAT + ALS): paraquat
Herbicides option - Burndown/PRE ([2]; volunteer: GT + CL (or AHAS) + PAT): paraquat
Herbicides option - Burndown/PRE ([2]; volunteer: GT + PAT): paraquat
Herbicides option - Burndown/PRE ([2]; volunteer: LL Corn): paraquat
Herbicides option - Burndown/PRE [2, 9]: paraquat

O=C(O)CNCP(=O)(O)O [Glyphosate]
Herbicides option - Burndown/PRE ([2]; volunteer: CL (or AHAS) + PAT): Glyphosate
Herbicides option - Burndown/PRE ([2]; volunteer: CL Corn): Glyphosate
Herbicides option - Burndown/PRE ([2]; volunteer: Conventional corn): Glyphosate
Herbicides option - Burndown/PRE ([2]; volunteer: GAT + ALS): Glyphosate
Herbicides option - Burndown/PRE ([2]; volunteer: LL Corn): Glyphosate

O=C(O)CNCP(=O)(O)O [glyphosate]
Herbicides option - POST ([2]; volunteer: CL (or AHAS) + PAT, planted: AAD-1 + AHAS): glyphosate
Herbicides option - POST ([2]; volunteer: CL (or AHAS) + PAT, planted: AAD-1 + GAT + ALS): glyphosate
Herbicides option - POST ([2]; volunteer: CL (or AHAS) + PAT, planted: AAD-1 + GT): glyphosate
Herbicides option - POST ([2]; volunteer: CL (or AHAS) + PAT, planted: AAD-1 + PAT + AHAS): glyphosate
Herbicides option - POST ([2]; volunteer: CL (or AHAS) + PAT, planted: AAD-1 + PAT + GAT + ALS): glyphosate
Herbicides option - POST ([2]; volunteer: CL (or AHAS) + PAT, planted: AAD-1 + PAT + GT): glyphosate
Herbicides option - POST ([2]; volunteer: CL Corn, planted: AAD-1 + AHAS): glyphosate
Herbicides option - POST ([2]; volunteer: CL Corn, planted: AAD-1 + GAT + ALS): glyphosate
Herbicides option - POST ([2]; volunteer: CL Corn, planted: AAD-1 + GT): glyphosate
Herbicides option - POST [2, 3]: glyphosate
Herbicides option - POST [2, 4]: glyphosate
Herbicides option - POST [2, 5]: glyphosate
Herbicides option - POST ([2]; volunteer: Conventional corn, planted: AAD-1 + AHAS): glyphosate
Herbicides option - POST ([2]; volunteer: Conventional corn, planted: AAD-1 + GAT + ALS): glyphosate
Herbicides option - POST ([2]; volunteer: Conventional corn, planted: AAD-1 + GT): glyphosate
Herbicides option - POST [2, 6]: glyphosate
Herbicides option - POST [2, 7]: glyphosate
Herbicides option - POST [2, 8]: glyphosate
Herbicides option - POST ([2]; volunteer: LL Corn, planted: AAD-1 + AHAS): glyphosate
Herbicides option - POST ([2]; volunteer: LL Corn, planted: AAD-1 + GAT + ALS): glyphosate
Herbicides option - POST ([2]; volunteer: LL Corn, planted: AAD-1 + GT): glyphosate
Herbicides option - POST ([2]; volunteer: LL Corn, planted: AAD-1 + PAT + AHAS): glyphosate
Herbicides option - POST ([2]; volunteer: LL Corn, planted: AAD-1 + PAT + GAT + ALS): glyphosate
Herbicides option - POST ([2]; volunteer: LL Corn, planted: AAD-1 + PAT + GT): glyphosate

CCSC(C)CC1CC(=O)C(/C(CC)=N/OC/C=C/Cl)=C(O)C1 (stereo not shown) [clethodim]
Tolerance (−/+) 3404 [1]: −

COC(=O)C(C)Oc1ccc(Oc2ccc(Cl)cc2Cl)cc1 (stereo not shown) [diclofop-methyl]
Tolerance (−/+) 3404 [1]: −
Comment (activity in words) [1]: Not active on grasses

CCc1cc(C)cc(CC)c1-c1c(OC(=O)C(C)(C)C)n2n(c1=O)CCOCC2 [pinoxaden]
Tolerance (−/+) 3404 [1]: +/−
Comment (activity in words) [1]: Not active but small amt of control on both WT

CP(=O)(O)CCC(N)C(=O)O (stereo not shown) [glufosinate-ammonium]
Tolerance (−/+) 3404 [1]: +

CCCCOC(=O)[C@@H](C)Oc1ccc(Oc2ccc(C(F)(F)F)cn2)cc1 [fluazifop-P-butyl]
Tolerance (−/+) 3404 [1]: +

CC(C)C1(C)N=C(c2nc3ccccc3cc2C(=O)O)NC1=O (stereo not shown) [imazaquin]
Tolerance (−/+) 3404 [1]: −/+
injury ([1]; @ 50 g ai/ha): Need higher than 50 g ai/ha rate (50% injury @

CCO/N=C(\CC)C1=C(O)CC(c2c(C)cc(C)cc2C)CC1=O (stereo not shown) [tralkoxydim]
Tolerance (−/+) 3404 [1]: −

CCc1cnc(C2=NC(C)(C(C)C)C(=O)N2)c(C(=O)O)c1 (stereo not shown) [imazethapyr]
Tolerance (−/+) 3404 [1]: −/+
injury ([1]; @ 70 g ai/ha): Need higher than 70 g ai/ha rate (50% injury @

CC(Oc1ccc(Oc2cnc3cc(Cl)ccc3n2)cc1)C(=O)O (stereo not shown) [quizalofop]
Tolerance (−/+) 3404 [1]: +
